In ChEMBL document CHEMBL3885861, “Open TG-GATES”:

Organism: Rattus norvegicus
Experiment: Open TG-GATES - Regimen: Single
Format: toxicity, organism-based, Sprague-Dawley
Parameters: regimen Single, gender Male, age 6 weeks
Conditions: in vivo, po, 30 mg/kg, route gavage, dose level Middle; for APTT / Bas / Eos / Fbg / Hb / Ht / Lym / MCH / MCHC / MCV / Mono / Neu / PT / Plat / RBC / Ret / WBC: tissue Blood; for A/G / ALP / ALT / AST / BUN / CRE / Ca / Cl / DBIL / GLC / IP / K / LDH / Na / PL / RALB / TBIL / TC / TG / TP / gamma-GTP: tissue Plasma

Compound: Cn1cc[nH]c1=S [METHIMAZOLE]
- TERMINAL_BW (3 h): 210.9 g
- APTT (3 h): 22.2 s
- Bas (3 h): 0%
- Eos (3 h): 1%
- Fbg (3 h): 305 mg/dL
- Hb (3 h): 14.3 g/dL
- Ht (3 h): 40.3%
- Lym (3 h): 73.2%
- MCH (3 h): 21.7 pg
- MCHC (3 h): 35.4%
- MCV (3 h): 61.4 fL
- Mono (3 h): 3%
- Neu (3 h): 21.8%
- PT (3 h): 15.9 s
- Plat (3 h): 120.3 x10_4/uL
- RBC (3 h): 657.4 x10_4/ul
- Ret (3 h): 8%
- WBC (3 h): 65.4 x10_2/uL
- A/G (3 h): 1.1
- ALP (3 h): 1707.8 IU/L
- ALT (3 h): 42.8 IU/L
- AST (3 h): 72.2 IU/L
- BUN (3 h): 10.4 mg/dL
- CRE (3 h): 0.1 mg/dL
- Ca (3 h): 10.7 mg/dL
- Cl (3 h): 105 meq/L
- DBIL (3 h): 0 mg/dL
- GLC (3 h): 186.4 mg/dL
- IP (3 h): 10.1 mg/dL
- K (3 h): 4.3 meq/L
- LDH (3 h): 250.2 IU/L
- Na (3 h): 141.6 meq/L
- PL (3 h): 146 mg/dL
- RALB (3 h): 2.9 g/dL
- TBIL (3 h): 0.006 mg/dL
- TC (3 h): 82.4 mg/dL
- TG (3 h): 64.4 mg/dL
- TP (3 h): 5.7 g/dL
- gamma-GTP (3 h): 1 IU/L
- TERMINAL_BW (6 h): 208.1 g
- APTT (6 h): 22.7 s
- Bas (6 h): 0%
- Eos (6 h): 1%
- Fbg (6 h): 316.8 mg/dL
- Hb (6 h): 14 g/dL
- Ht (6 h): 40%
- Lym (6 h): 73.6%
- MCH (6 h): 22 pg
- MCHC (6 h): 35%
- MCV (6 h): 62.7 fL
- Mono (6 h): 2.8%
- Neu (6 h): 21.8%
- PT (6 h): 16.2 s
- Plat (6 h): 123.7 x10_4/uL
- RBC (6 h): 637.2 x10_4/ul
- Ret (6 h): 8.4%
- WBC (6 h): 68.1 x10_2/uL
- A/G (6 h): 1.2
- ALP (6 h): 1225.2 IU/L
- ALT (6 h): 46.2 IU/L
- AST (6 h): 71.8 IU/L
- BUN (6 h): 11.8 mg/dL
- CRE (6 h): 0.1 mg/dL
- Ca (6 h): 10.6 mg/dL
- Cl (6 h): 103.4 meq/L
- DBIL (6 h): 0.002 mg/dL
- GLC (6 h): 196.2 mg/dL
- IP (6 h): 9.4 mg/dL
- K (6 h): 4.2 meq/L
- LDH (6 h): 329.8 IU/L
- Na (6 h): 140.4 meq/L
- PL (6 h): 141.2 mg/dL
- RALB (6 h): 2.9 g/dL
- TBIL (6 h): 0.01 mg/dL
- TC (6 h): 79.8 mg/dL
- TG (6 h): 45 mg/dL
- TP (6 h): 5.5 g/dL
- gamma-GTP (6 h): 1 IU/L
- TERMINAL_BW (9 h): 205.3 g
- APTT (9 h): 22.1 s
- Bas (9 h): 0%
- Eos (9 h): 1.2%
- Fbg (9 h): 299.8 mg/dL
- Hb (9 h): 13.7 g/dL
- Ht (9 h): 38.8%
- Lym (9 h): 75.4%
- MCH (9 h): 21.5 pg
- MCHC (9 h): 35.4%
- MCV (9 h): 60.8 fL
- Mono (9 h): 2.4%
- Neu (9 h): 20.2%
- PT (9 h): 15.7 s
- Plat (9 h): 121.8 x10_4/uL
- RBC (9 h): 640 x10_4/ul
- Ret (9 h): 8.1%
- WBC (9 h): 70 x10_2/uL
- A/G (9 h): 1.2
- ALP (9 h): 1422 IU/L
- ALT (9 h): 43.8 IU/L
- AST (9 h): 71.4 IU/L
- BUN (9 h): 12.8 mg/dL
- CRE (9 h): 0.1 mg/dL
- Ca (9 h): 10.5 mg/dL
- Cl (9 h): 105.2 meq/L
- DBIL (9 h): 0.004 mg/dL
- GLC (9 h): 198 mg/dL
- IP (9 h): 8.7 mg/dL
- K (9 h): 3.8 meq/L
- LDH (9 h): 353.6 IU/L
- Na (9 h): 140.6 meq/L
- PL (9 h): 155.8 mg/dL
- RALB (9 h): 3 g/dL
- TBIL (9 h): 0.012 mg/dL
- TC (9 h): 85.4 mg/dL
- TG (9 h): 81 mg/dL
- TP (9 h): 5.6 g/dL
- gamma-GTP (9 h): 1 IU/L
- TERMINAL_BW (24 h): 212.4 g
- APTT (24 h): 21 s
- Bas (24 h): 0%
- Eos (24 h): 1%
- Fbg (24 h): 320.4 mg/dL
- Hb (24 h): 13.9 g/dL
- Ht (24 h): 39.6%
- Lym (24 h): 76.6%
- MCH (24 h): 21.8 pg
- MCHC (24 h): 35.2%
- MCV (24 h): 62 fL
- Mono (24 h): 2.4%
- Neu (24 h): 19%
- PT (24 h): 16.3 s
- Plat (24 h): 115.8 x10_4/uL
- RBC (24 h): 640 x10_4/ul
- Ret (24 h): 7.8%
- WBC (24 h): 84 x10_2/uL
- A/G (24 h): 1.1
- ALP (24 h): 1634.4 IU/L
- ALT (24 h): 42.4 IU/L
- AST (24 h): 64.6 IU/L
- BUN (24 h): 15.4 mg/dL
- CRE (24 h): 0.1 mg/dL
- Ca (24 h): 10.7 mg/dL
- Cl (24 h): 106 meq/L
- DBIL (24 h): 0 mg/dL
- GLC (24 h): 180.6 mg/dL
- IP (24 h): 7 mg/dL
- K (24 h): 4.4 meq/L
- LDH (24 h): 211.4 IU/L
- Na (24 h): 141.6 meq/L
- PL (24 h): 158.6 mg/dL
- RALB (24 h): 3 g/dL
- TBIL (24 h): 0.002 mg/dL
- TC (24 h): 84.6 mg/dL
- TG (24 h): 131.4 mg/dL
- TP (24 h): 5.6 g/dL
- gamma-GTP (24 h): 1 IU/L
